Assay results reported in PMC4627239, “Discovery of new small molecules inhibiting 67 kDa laminin receptor interaction with laminin and cancer cell invasion” (Oncotarget, 2015).
pIC50: −log10 of the molar value.

How the values were obtained:
[1] = biological target: T1, 37 kDa laminin receptor precursor (37LRP/67LR) (Homo sapiens, UniProt P08865); experiment: ELISA-type inhibition of r37LRP binding to immobilized laminin at […]; type: biochemical
T1 construct: gene RPSA

[2] = biological target: T1, 37 kDa laminin receptor precursor (37LRP/67LR); experiment: ELISA-type inhibition of r37LRP binding to immobilized laminin (and YIGSR)

For `Cc1ccc(N(Cc2c(O)ccc3ccccc23)Cc2c(O)ccc3ccccc23)cc1` [compound 61, 1-((((2-hydroxy-1-naphthyl)methyl)-4-methylanilino)methyl)-2-naphthol], the “ELISA-type inhibition of r37LRP binding to immobilized laminin at 50 μM” value (shortened to “ELISA-type inhibition of r37LRP binding”) [1] was “NSC47923, NSC48478, NSC48861 and NSC48869 were active to the same extent as NSC47924, by in vitro binding assays”.
For `COc1ccc(NCc2c(O)ccc3ccccc23)cc1` [compound 13, 1-((4-methoxyanilino)methyl)-2-naphthol], the pIC50 [2] was 4.23.
`Cc1ccc(NCc2c(O)ccc3ccccc23)cc1` [compound 50, 1-(4-toluidinomethyl)-2-naphthol] was tested, and the “ELISA-type inhibition of r37LRP binding” value [1] was “NSC47923, NSC48478, NSC48861 and NSC48869 were active to the same extent as NSC47924, by in vitro binding assays”.
With `Oc1ccc2ccccc2c1CN(Cc1c(O)ccc2ccccc12)c1ccccc1` [compound 60, 1-((((2-hydroxy-1-naphthyl)methyl)anilino)methyl)-2-naphthol] the “ELISA-type inhibition of r37LRP binding” value [1] was “NSC47923, NSC48478, NSC48861 and NSC48869 were active to the same extent as NSC47924, by in vitro binding assays”.
In the case of `Oc1ccc2ccccc2c1CNc1ccc(Cl)cc1` [compound 52, 1-((4-chloroanilino)methyl)-2-naphthol], the “ELISA-type inhibition of r37LRP binding” value [1] was “NSC47923, NSC48478, NSC48861 and NSC48869 were active to the same extent as NSC47924, by in vitro binding assays”.
